In patent publication US5808139A (Ligand Pharmaceuticals Incorporated, priority 1994, dated 1998):

Columns and labels:
[1] = system: human progesterone receptor altered at the Tau-1 location; assay: Co-transfection assay in CV-1 cells, progesterone receptor altered at Tau-1, antagonist activity; assay type: cell-based; conditions: for Efficacy (% maximal response relative to RU-486), CV-1 cells: antagonist activity; for IC50: concentration required to reduce the maximal response by 50%, read-out: Potency (IC50), CV-1 cells
Source text: This assay is described in further detail in U.S. Pat. Nos. 4,981,784 and 5,071,773, which are incorporated herein by reference. The co-transfection assay provides a method for identifying functional ligands (either agonists which mimic, or antagonists which inhibit, the effect of hormones) for ligand-responsive receptor proteins.
The co-transfection assay provides a mechanism to evaluate ability of a compound to function as an agonist or antagonist of the activity modulated by an intracellular receptor. The co-transfection assay mimics an in vivo system in the laboratory. In the co-transfection assay, a cloned gene for an intracellular receptor is introduced by transfection (a procedure to induce cells to take up foreign genes) into a background cell substantially devoid of endogenous intracellular receptors. This introduced gene directs the recipient cells to make the intracellular receptor protein. A second gene is also introduced (co-transfected) into the same cells in conjunction with the intracellular receptor gene. This second gene functions as a reporter for the transcription-modulating activity of the target intracellular receptor. The reporter acts as a surrogate for the products normally expressed by a gene under control of the target receptor and its natural hormone.
A preferred reporter gene is one which expresses the firefly enzyme luciferase. The co-transfection assay can detect small molecule agonists or antagonists of target intracellular receptors. Exposing the cells to an agonist ligand increases reporter activity in the transfected cells that can be conveniently measured, reflecting ligand-dependent, intracellular receptor-mediated increases in reporter transcription. To detect antagonists, the co-transfection assay is carried out in the presence of a constant concentration of an agonist known to induce a defined reporter signal. Increasing concentrations of a test antagonist will decrease the reporter signal. The co-transfection assay is therefore useful to detect both agonists and antagonists of specific intracellular receptors. It determines not only whether a compound interacts with a particular intracellular receptor, but also whether this interaction mimics (agonizes) or blocks (antagonizes) the effects of the natural regulatory molecules on target gene expression.
Co-transfected cells are exposed to a medium to which is added the potential ligand that is being evaluated. If the candidate ligand diffuses into the cell and binds to the receptor and the resulting complex functions as an agonist, it binds to the co-transfected reporter gene and initiates transcription. When that gene is one that expresses, for example, luciferase, luciferase is produced which catalyzes a light-emitting reaction with its substrate luciferin. Thus, after cell lysis and the introduction of luciferin, the amount of light produced relative to the concentration of candidate ligand used in the assay provides a measure of the potency and efficacy of the compound tested. Antagonist activity is evaluated by adding the candidate ligand and a known agonist to the co-transfected cells.
The receptor cDNA was introduced in a mammalian expression vector under the control of the Rous Sarcoma virus LTR. […] A reporter vector was also transfected, containing a firefly luciferase gene under the control of the hormone-responsive promoter. […] The level of luciferase activity was then measured in cell extracts. Light emission is directly proportional to the effectiveness of the hormone-receptor complex in activating gene expression.
A total of three replicates per concentration point were tested for each compound, and the EC50 was calculated for each positive response. Both agonist and antagonist activity for each test compound was determined in parallel. […]

[2] = system: progesterone receptor (T47D cells); assay: Antagonist assay in T47D (human breast cancer) cells (Tables 1 and 2); assay type: cell-based; conditions: for Efficacy (% maximal response relative to RU-486), T47D cells: antagonist activity; for IC50: concentration required to reduce the maximal response by 50%, read-out: Potency (IC50), T47D cells
Source text: The functional activities of the cyclocymopol analogues in the human breast cell line, T47D, were also investigated. T47D cells have proven to be a particularly useful model to investigate the molecular actions of sex steroids because they contain endogenous functional receptors for, and respond to, progestins, and their respective antagonists. […] In T47D cells, progestins induce de novo synthesis of a plasma-associated alkaline phosphatase, which has been reported to be similar, if not identical, to the alkaline phosphatase present in the normal breast and human milk. These tests were conducted according to the following illustrative example.
The assay was also run using T47D (human breast cancer) cells.

[3] = target: T1, human progesterone receptor (Homo sapiens, UniProt P06401); assay: Progesterone receptor binding (displacement of 3H-progesterone, whole cell extract of transfected CV-1 cells); set-up: expressed in transfected cells; host or cells: CV-1 cells (calcium phosphate transfection), whole cell extract
T1 sequence (P06401 1-933): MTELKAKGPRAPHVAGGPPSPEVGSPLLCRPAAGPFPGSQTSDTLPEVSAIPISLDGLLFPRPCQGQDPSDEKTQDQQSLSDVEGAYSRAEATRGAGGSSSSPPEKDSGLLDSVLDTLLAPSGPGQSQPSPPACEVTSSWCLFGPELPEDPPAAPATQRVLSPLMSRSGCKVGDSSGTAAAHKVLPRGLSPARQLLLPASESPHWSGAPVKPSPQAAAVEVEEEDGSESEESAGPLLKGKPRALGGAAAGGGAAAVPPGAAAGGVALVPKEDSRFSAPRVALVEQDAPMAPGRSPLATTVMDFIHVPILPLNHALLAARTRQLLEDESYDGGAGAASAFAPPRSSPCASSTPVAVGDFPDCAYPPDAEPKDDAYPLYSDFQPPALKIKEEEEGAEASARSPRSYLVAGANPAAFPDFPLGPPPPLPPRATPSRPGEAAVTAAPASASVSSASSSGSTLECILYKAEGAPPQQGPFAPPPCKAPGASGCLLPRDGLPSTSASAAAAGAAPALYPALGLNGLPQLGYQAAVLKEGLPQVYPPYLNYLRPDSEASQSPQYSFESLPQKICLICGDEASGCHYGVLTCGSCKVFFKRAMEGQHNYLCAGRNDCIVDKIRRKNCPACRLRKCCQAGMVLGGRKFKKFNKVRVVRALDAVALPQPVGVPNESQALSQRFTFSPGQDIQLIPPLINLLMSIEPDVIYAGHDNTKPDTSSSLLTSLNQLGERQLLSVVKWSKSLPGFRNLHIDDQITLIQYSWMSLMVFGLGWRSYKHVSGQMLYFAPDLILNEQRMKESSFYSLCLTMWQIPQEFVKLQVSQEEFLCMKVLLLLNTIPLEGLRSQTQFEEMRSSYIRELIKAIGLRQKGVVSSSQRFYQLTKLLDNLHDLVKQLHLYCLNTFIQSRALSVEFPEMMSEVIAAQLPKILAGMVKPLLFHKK
Procedure: These tests were conducted according to the following illustrative example.
CO2 for 40 hours prior to harvest.
After incubation, cells were harvested and washed in phosphate buffered saline. Whole cell receptor extract was prepared by homogenizing the harvested cells in Tris-HCl buffer, pH=7.4, containing 30% glycerol, 1 mM EDTA, 12 mM monothioglycerol, 1 mM PMSF, and 0.5M potassium chloride. The homogenate was incubated at 4° C. for 60 min with resuspension every 10 min. The suspension was centrifuged (105,000×g, 60 min) and the supernatant was collected and flash frozen in liquid nitrogen and stored frozen at -70° C.
To a […] final volume incubation mixture, […] of 7.5% (w/v) dextran-coated charcoal suspension in gelatin phosphate buffer was added. The mixture was vortexed and incubated at 4° C. for 10 min and then centrifuged at 3000 rpm for 10 min. The amount of bound tritiated hormone was determined by liquid scintillation spectrophotometry of an aliquot of the supernatant. […]

Compound	Efficacy (% maximal response relative to RU-486), CV-1 cells [1] [%]	Efficacy (% maximal response relative to RU-486), T47D cells [2] [%]	Kd [3] [nM]	IC50 [1] [nM]	IC50 [2] [nM]
C=C1C=CCC(C)(C)C1Cc1cc(OC)c(Br)cc1O (stereo not shown) [K, 1-Methylidene-6-(2'-hydroxy-4'-bromo-5'-methoxyphenyl)methyl-5,5-dimethylcyclohex-2-ene]	70	70			
C=C1CC[C@@H](Br)C(C)(C)[C@@H]1Cc1cc(OC)c(C=O)cc1O [NN, (3R)-4'-Formylcyclocymopol monomethyl ether]	31	83	409	2100	1800
C=C1CCCC(C)(C)C1Cc1cc(OC)c(Br)cc1OC(C)=O (stereo in doubt) [B, (3S)-1-Debromocyclocymopol monomethyl ether, acetate]	45	65	35	400	85
C=C1[C@H](O)C[C@@H](Br)C(C)(C)[C@@H]1Cc1cc(OC)c(Br)cc1O [E, (3R,5R)-5-Hydroxycyclocymopol monomethyl ether]	85	85	925	450	475
C=C1CCC(C)(C)C1Cc1cc(OC)c(Br)cc1O (stereo not shown) [P, 1-Methylidene-2-(2'-hydroxy-4'-bromo-5'-methoxyphenyl)methyl-3,3-dimethylcyclo-pentane]	100	60	440	1200	275
C=C1CCCC(C)(C)C1Cc1ccc(Br)cc1 (stereo not shown) [O, 1-Methylidene-2-(4'-bromophenyl)methyl-3,3-dimethylcyclohexane]	90	85	445	1000	850
C=C1CC[C@@H](C)C(C)(C)[C@@H]1Cc1cc(OC)c(Br)cc1O (relative stereo) [LL, trans-1-Methylidene-2-(2'-hydroxy-4'-bromo-5'-methoxyphenyl)methyl-3,3,4-trimethylcyclohexane]	91	74	269	1600	500
C=C1CCCCC1Cc1ccc([N+](=O)[O-])cc1 (stereo not shown) [Q, 1-Methylidene-2-(4'-nitrophenyl)methylcyclohexane]	95	65	245	1200	225
C=C1C[C@H](C)CC(C)(C)[C@@H]1Cc1cc(OC)c(Br)cc1O (relative stereo) [BB, cis-1-Methylidene-2-(2'-hydroxy-4'-bromo-5'-methoxyphenyl)methyl-3,3,5-trimethyleyclohexane]	38	41	28	5140	7190
C=C1CCCC(C)(C)C1Cc1cc(OC)c(Br)cc1OC(=O)c1ccccc1 (stereo in doubt) [U, (3R)-1-Debromocyclocymopol monomethyl ether, benzoate]	95	80	190	1600	300
C=C1C(C)=CCC(C)(C)C1Cc1cc(OC)c(Br)cc1OC(C)=O (stereo in doubt) [Z, (3R)-5-Methyl-5,6-dehydro-1-debromocyclocymopol monomethyl ether, acetate]	83	81		660	210
C=C1C=C(C)CC(C)(C)C1Cc1ccc2nonc2c1 (stereo not shown) [FF, 1-Methylidene-6-(benzofurazan-5'-yl)methyl-3,5,5-trimethylcyclohex-2-ene]	72	71		1950	775
C=C1CCCC(C)(C)C1Cc1cc(OC)c(Br)cc1O (stereo not shown) [C, 1-Methylidene-2-(2'-hydroxy-4'-bromo-5'-methoxy-phenyl)methyl-3.3-dimethylcyclohexane]	55	70			
C=C1CCCC(C)(C)C1Cc1cc(OC)c(Br)cc1O (stereo in doubt) [G, (3S)-1-Debromocyclocymopol monomethyl ether]	45	50			
C=C1C=C(C)CC(C)(C)C1Cc1cc(OC)c(Br)cc1O (stereo not shown) [II, 1-Methylidene-6-(2'-hydroxy-4'-bromo-5'-methoxyphenyl)methyl-3,5,5-trimethylcyclohex-2-ene]				3570	
C=C1C=C(C)CC(C)(C)C1C/C=C/c1cc(OC)c(Br)cc1O (stereo not drawn) [GG, 1-Methylidene-6-[trans-(2'-Hydroxy-4'-bromo-5'-methoxyphenyl)-1-propenyl]-3,5,5-trimethylcyclohex-2-ene]	61	65		3300	1600
